# Data as given in publication PMC7013880, “Synthesis of Spin-Labelled Bergamottin: A Potent CYP3A4 Inhibitor with Antiproliferative Activity” (International Journal of Molecular Sciences, 2020).
# pIC50: −log10 of the molar value.
# Tests used:
# [1] = tested on: HeLa cells; experiment: WST-1 cell viability assay, HeLa cells; assay type: cell-based; conditions: HeLa human cervix carcinoma cells, 24 h treatment
# Method: (§1) Murine embryonic fibroblast NIH3T3 cells were maintained in DMEM (Cat No. 043-30085, Wako Pure Chemical, Osaka, Japan) supplemented with 10% newborn calf serum (NBCS) at 37 °C and 5% CO2. Human cervix carcinoma HeLa cells were maintained in DMEM supplemented with 10% fetal bovine serum at 37 °C and 5% CO2. To determine the toxicity of BM and SL-BM, the WST-1 cell viability assay was employed as described previously. The cells (NIH3T3: 2000 per well; HeLa: 5000 per well) were seeded into all the wells of 96-well plates. After 24 h, the medium was replaced, and the cells were treated with the test compounds for 24 h. Then, the cells were incubated with a WST-1 solution (3.6 µg/µL WST-1, 70 ng/µL 1-methoxy phenazine methosulfate in 20 mM 4-(2-hydroxyethyl)-1-piperazineethanesufonic acid–KOH (pH 7.4); Dojindo, Kumamoto, Japan) for 1 h at 37 °C, and the absorbance of each well was recorded at 440 nm using a Multiskan FC microplate reader (Thermo Fisher Scientific).
# [2] = tested on: NIH3T3 cells; experiment: WST-1 cell viability assay, NIH3T3 fibroblasts; assay type: cell-based; conditions: Mus musculus, NIH3T3 murine embryonic fibroblasts, 24 h treatment
# Method: as §1
# [3] = target: CYP2C9 (Homo sapiens, UniProt P11712)
# Method: (§2) Stock solutions of BM, SL-BM, and positive controls (each 5000 μM) were prepared in dimethyl sulfoxide (Fluka) and stored at –20 °C. The inhibitory effects of BM and SL-BM on the CYP2C9, 2C19, and 3A4 enzymes were examined using CypExpress^TM assay kits by employing diclofenac, S-mephenytoin, and testosterone substrates, respectively.
# (§3) The substrates and products were analyzed using the HPLC system comprising a pump (Waters 510; Milford, MA, USA), an injector (Rheodyne 7125) with a 20 μL sample loop, and a UV detector (Waters 486). The data were evaluated by employing Millennium Chromatographic Manager software (Waters). HPLC analyses of diclofenac and 4′-hydroxydiclofenac (CYP2C9 assay) [39, 40], S-mephenytoin, and 4-hydroxymephenytoin [42] as well as testosterone and 6β-hydroxytestosterone (CYP3A4 assay) [41] were performed as described previously.
# (§4) Data were derived from at least three independent experiments and represented as the mean ± the standard error of the mean (SEM) values. The statistical significance (p < 0.05 and p < 0.01) was established by employing a one-way ANOVA test (IBS SPSS Statistics, v. 21; Armonk, NY, USA). The metabolite formation (% of control) was plotted as a function of the logarithmic concentrations, and then the IC50 values were determined using GraphPad Prism 8 software (San Diego, CA, USA).
# [4] = target: CYP2C19 (Homo sapiens, UniProt P33261); experiment: CYP2C19 inhibition assay (CypExpress 2C19 kit, S-mephenytoin substrate, HPLC); conditions: relative to BM
# Sequence of CYP2C19 (P33261 whole entry): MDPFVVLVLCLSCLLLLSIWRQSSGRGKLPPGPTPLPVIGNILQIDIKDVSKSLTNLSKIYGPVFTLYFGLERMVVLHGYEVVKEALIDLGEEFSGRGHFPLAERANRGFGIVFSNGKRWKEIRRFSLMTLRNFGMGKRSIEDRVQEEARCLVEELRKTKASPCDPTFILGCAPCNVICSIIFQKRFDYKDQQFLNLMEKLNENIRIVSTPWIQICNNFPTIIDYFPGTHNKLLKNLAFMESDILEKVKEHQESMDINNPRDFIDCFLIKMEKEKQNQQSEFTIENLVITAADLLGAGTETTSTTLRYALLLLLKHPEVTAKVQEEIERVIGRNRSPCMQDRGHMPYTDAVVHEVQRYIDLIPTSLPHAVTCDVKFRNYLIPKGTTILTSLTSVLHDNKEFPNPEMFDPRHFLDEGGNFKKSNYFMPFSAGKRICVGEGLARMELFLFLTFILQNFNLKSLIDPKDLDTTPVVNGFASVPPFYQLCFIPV
# Method: as §2, §3, §4
# Sequence of CYP2C9 (P11712 whole entry): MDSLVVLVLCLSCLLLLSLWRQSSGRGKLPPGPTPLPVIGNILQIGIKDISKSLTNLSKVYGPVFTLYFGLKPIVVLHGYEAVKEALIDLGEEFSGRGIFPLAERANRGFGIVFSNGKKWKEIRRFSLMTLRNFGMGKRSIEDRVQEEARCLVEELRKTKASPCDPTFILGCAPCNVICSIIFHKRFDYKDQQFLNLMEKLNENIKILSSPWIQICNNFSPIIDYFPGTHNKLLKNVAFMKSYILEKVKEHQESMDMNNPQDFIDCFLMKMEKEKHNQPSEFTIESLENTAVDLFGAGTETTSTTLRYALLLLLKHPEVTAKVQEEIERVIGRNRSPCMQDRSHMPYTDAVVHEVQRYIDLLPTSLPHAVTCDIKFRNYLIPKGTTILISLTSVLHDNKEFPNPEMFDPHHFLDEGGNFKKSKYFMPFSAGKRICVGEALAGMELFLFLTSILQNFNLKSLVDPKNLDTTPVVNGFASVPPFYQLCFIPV
IC50(rel): IC50 of the inhibitor divided by the substrate concentration [3],α: IC50 of the inhibitor divided by the IC50 value of the positive control [3],SMILES,pIC50 [1],pIC50 [2],fold weaker inhibitor of CYP2C19 than BM [4],melting point
,,"CC(C)=CCC/C(C)=C/COc1c2ccoc2cc2oc(=O)ccc12 [Bergamottin, 5-geranoxypsoralen]",< 4.30,< 4.30,,
1.96,1.00,"CC(=O)CC(c1ccccc1)c1c(O)c2ccccc2oc1=O (centres unmarked) [Warfarin, warfarin]",,,,
,,C/C(=C\COc1c2ccoc2cc2oc(=O)ccc12)CCC=C1CC(C)(C)N([O])C(C)(C)C1 [SL-Bergamottin],4.76,< 4.30,~15 fold,51 to 53 °C
